From the Kinase Knowledgebase extract (Sharma et al. 2016)

Molecular target: EGFR (human) (UniProt P00533)
Details: a431

Sequence of EGFR (human) (P00533 whole entry, looked up): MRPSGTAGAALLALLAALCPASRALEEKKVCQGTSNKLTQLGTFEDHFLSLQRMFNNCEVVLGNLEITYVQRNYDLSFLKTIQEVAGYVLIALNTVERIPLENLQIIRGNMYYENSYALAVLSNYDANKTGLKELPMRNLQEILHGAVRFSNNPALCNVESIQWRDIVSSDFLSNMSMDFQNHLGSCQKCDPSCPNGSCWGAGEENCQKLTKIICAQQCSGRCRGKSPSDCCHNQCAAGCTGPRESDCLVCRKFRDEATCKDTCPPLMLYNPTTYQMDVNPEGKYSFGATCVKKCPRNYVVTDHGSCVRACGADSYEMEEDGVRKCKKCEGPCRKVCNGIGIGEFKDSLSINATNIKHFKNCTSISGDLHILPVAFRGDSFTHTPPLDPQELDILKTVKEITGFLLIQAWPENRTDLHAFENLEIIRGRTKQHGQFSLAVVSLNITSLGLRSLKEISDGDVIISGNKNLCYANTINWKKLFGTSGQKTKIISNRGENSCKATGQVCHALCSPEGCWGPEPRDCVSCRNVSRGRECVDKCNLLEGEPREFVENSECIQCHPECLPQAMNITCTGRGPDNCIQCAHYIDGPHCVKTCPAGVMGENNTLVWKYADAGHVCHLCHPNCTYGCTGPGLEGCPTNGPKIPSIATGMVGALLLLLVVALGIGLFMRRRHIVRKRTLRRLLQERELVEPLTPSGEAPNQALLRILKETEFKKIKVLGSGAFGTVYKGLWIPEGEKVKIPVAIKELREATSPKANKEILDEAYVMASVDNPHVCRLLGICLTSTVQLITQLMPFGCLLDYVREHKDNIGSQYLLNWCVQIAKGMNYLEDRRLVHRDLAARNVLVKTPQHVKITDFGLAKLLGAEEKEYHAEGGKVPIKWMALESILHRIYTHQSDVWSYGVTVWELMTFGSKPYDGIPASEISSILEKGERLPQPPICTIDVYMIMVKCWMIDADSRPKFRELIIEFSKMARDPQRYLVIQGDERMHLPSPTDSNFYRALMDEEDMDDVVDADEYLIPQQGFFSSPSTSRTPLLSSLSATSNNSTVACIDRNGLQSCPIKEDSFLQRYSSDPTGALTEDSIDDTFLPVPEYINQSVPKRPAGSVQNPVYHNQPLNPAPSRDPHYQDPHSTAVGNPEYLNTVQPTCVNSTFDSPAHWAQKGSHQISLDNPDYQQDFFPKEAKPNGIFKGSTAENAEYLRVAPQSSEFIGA

Compound | IC50 [µM]
Cc1c(C=C2C(=O)Nc3cc(NCc4ccc(F)cc4)c(F)cc32)[nH]c2c1C(=O)N(CCN1CCCCC1)CC2 | 0.34
CCN(CC)CCN1CCc2[nH]c(C=C3C(=O)Nc4cccc(C5CCNCC5)c43)c(C)c2C1=O | 0.35
Cc1c(C=C2C(=O)Nc3cccc(C4CCNCC4)c32)[nH]c2c1C(=O)N(CCN1CCOCC1)CC2 | 1.9
COCC(=O)Nc1cc2c(cc1F)C(=Cc1[nH]c3c(c1-c1ccc(F)cc1)C(=O)NCC3)C(=O)N2 | 2.03
Cc1c(C=C2C(=O)Nc3cccc(-c4c(F)cccc4F)c32)[nH]c2c1C(=O)N(CCN1CCCCC1)CC2 | 0.53
Cc1c(C=C2C(=O)Nc3ccc(F)cc32)[nH]c2c1C(=O)N(CCN1CCCC1)CC2 | 1.31
Cc1c(C=C2C(=O)Nc3ncnc(Nc4ccc(F)c(Cl)c4)c32)[nH]c2c1C(=O)N(CCN1CCOCC1)CC2 | 0.33
Cc1c(C=C2C(=O)Nc3cccc(CCO)c32)[nH]c2c1C(=O)N(CCN1CCOCC1)CC2 | 16.5
Cc1c(C=C2C(=O)Nc3ccc(Cl)cc32)[nH]c2c1C(=O)N(CCN1CCOCC1)CC2 | 10.2
Cc1c(C=C2C(=O)Nc3cccc(-c4cccc(F)c4)c32)[nH]c2c1C(=O)N(CCN1CCCCC1)CC2 | 0.18
Cc1c(C=C2C(=O)Nc3cccc(-c4cccc(F)c4F)c32)[nH]c2c1C(=O)N(CCN1CCCC1)CC2 | 2.19
Cc1c(C=C2C(=O)Nc3ccc(NC=O)cc32)[nH]c2c1C(=O)N(CCN1CCCCC1)CC2 | 0.12
Cc1c(C=C2C(=O)Nc3cccc(CCO)c32)[nH]c2c1C(=O)N(CCN1CCCC1)CC2 | 1.68
Cc1c(C=C2C(=O)Nc3cccc(-c4cccc(Cl)c4F)c32)[nH]c2c1C(=O)N(CCN1CCOCC1)CC2 | 6.11
Cc1c(C=C2C(=O)Nc3ncc(Br)cc32)[nH]c2c1C(=O)N(CCN1CCOCC1)CC2 | 15.9
Cc1c(C=C2C(=O)Nc3ccc(NS(C)(=O)=O)cc32)[nH]c2c1C(=O)N(CCN1CCOCC1)CC2 | 2.85
Cc1c(C=C2C(=O)Nc3ncc(Br)cc32)[nH]c2c1C(=O)N(CCN1CCCCC1)CC2 | 1.66
O=C(CO)Nc1cc2c(cc1F)C(=Cc1[nH]c3c(c1-c1ccc(F)cc1)C(=O)NCC3)C(=O)N2 | 3.06
Cc1c(C=C2C(=O)Nc3c(Br)cc(F)cc32)[nH]c2c1C(=O)N(CCN1CCCCC1)CC2 | 0.27
Cc1c(C=C2C(=O)Nc3cc(N)c(F)cc32)[nH]c2c1C(=O)N(CCN1CCCC1)CC2 | 10.7
Cc1c(C=C2C(=O)Nc3cccc(C4CCNCC4)c32)[nH]c2c1C(=O)N(CCN1CCCC1)CC2 | 0.59
Cc1c(C=C2C(=O)Nc3ccc(F)cc32)[nH]c2c1C(=O)N(CCN1CCOCC1)CC2 | 1.35
Cc1c(C=C2C(=O)Nc3cccc(Br)c32)[nH]c2c1C(=O)N(CCN1CCCC1)CC2 | 0.2
Cc1c(C=C2C(=O)Nc3cc(NC(=O)CO)c(F)cc32)[nH]c2c1C(=O)N(CCN1CCCCC1)CC2 | 1.25
Cc1c(C=C2C(=O)Nc3cccc(-c4cccc(Cl)c4F)c32)[nH]c2c1C(=O)N(CCN1CCCC1)CC2 | 13.8

Second part, the molecule after the results:

IC50 [µM] | Compound
3.89 | CCN(CC)CCN1CCc2[nH]c(C=C3C(=O)Nc4ccc(-c5ccc(OC)cc5)cc43)c(C)c2C1=O
4.35 | CCN(CC)CCN1CCc2[nH]c(C=C3C(=O)Nc4ccc(OC)cc43)c(C)c2C1=O
0.37 | CCN(CC)CCN1CCc2[nH]c(C=C3C(=O)Nc4cc(NC=O)c(F)cc43)c(C)c2C1=O
0.84 | CCN(CC)CCN1CCc2[nH]c(C=C3C(=O)Nc4ccc(NC=O)cc43)c(C)c2C1=O
1.09 | CCN(CC)CCN1CCc2[nH]c(C=C3C(=O)Nc4ccc(F)cc43)c(C)c2C1=O
3.23 | CCN(CC)CCN1CCc2[nH]c(C=C3C(=O)Nc4cccc(-c5ccc(Cl)cc5F)c43)c(C)c2C1=O
1.38 | CCN(CC)CCN1CCc2[nH]c(C=C3C(=O)Nc4c(NC(C)=O)cc(F)cc43)c(C)c2C1=O
1.26 | CCN(CC)CCN1CCc2[nH]c(C=C3C(=O)Nc4ccc(Br)cc43)c(C)c2C1=O
12.6 | CCN(CC)CCN1CCc2[nH]c(C=C3C(=O)Nc4c(N)cc(F)cc43)c(C)c2C1=O
3.85 | CCN(CC)CCN1CCc2[nH]c(C=C3C(=O)Nc4cccc(CCO)c43)c(C)c2C1=O
9.29 | CCN(CC)CCN1CCc2[nH]c(C=C3C(=O)Nc4cc(NC(C)=O)c(F)cc43)c(C)c2C1=O
0.33 | CCN(CC)CCN1CCc2[nH]c(C=C3C(=O)Nc4cccc(Br)c43)c(C)c2C1=O
0.38 | CCN(CC)CCN1CCc2[nH]c(C=C3C(=O)Nc4cccc(-c5cccc(F)c5F)c43)c(C)c2C1=O
7.32 | CCN(CC)CCN1CCc2[nH]c(C=C3C(=O)Nc4cccc(-c5cccc(Cl)c5F)c43)c(C)c2C1=O
0.067 | CCN(CC)CCN1CCc2[nH]c(C=C3C(=O)Nc4ncnc(Nc5ccc(F)c(Cl)c5)c43)c(C)c2C1=O
10.5 | CCN(CC)CCN1CCc2[nH]c(C=C3C(=O)Nc4cc(N)c(F)cc43)c(C)c2C1=O
1.38 | CCN(CC)CCN1CCc2[nH]c(C=C3C(=O)Nc4c(NC=O)cc(F)cc43)c(C)c2C1=O
1.04 | CCN(CC)CCN1CCc2[nH]c(C=C3C(=O)Nc4ccc(Cl)cc43)c(C)c2C1=O
